Results on 19 molecules are retold here after patent US20170334899A1, “AMINO-SUBSTITUTED ISOTHIAZOLES” (Bayer Pharma Aktiengesellschaft, priority 2014, published 2017).

pIC50: −log10 of the molar value. Values joined by “and” are separate entries in the source; they are usually repeats but may differ in a detail not shown here. Equal entries are not always repeated. Where two headings read alike, the source gives them in different places.

The test system of assay [1] is human cervical tumor cell line HeLa (ATCC CCL-2). In words: SAC-Formation - Paclitaxel-Induced Assay. Type of assay: cell-based. Conditions: 24 h, HeLa cells, paclitaxel 0.05 μM, test range 0.005 μM-20 μM, read-out: IC50 [mol/l] SAC-Formation - Paclitaxel-Induced Assay. In a few lines: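 Read-out is high-content imaging of anti-phospho-H3 Ser10 (mitosis) and Hoechst 33342 (DNA, cell number), with decreased mitotic fraction marking checkpoint breakthrough. Compounds (0.005–20 μM) and 0.05 μM paclitaxel co-added to overnight-plated HeLa for 24 h at 37° C; four-parameter Hill fit.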

Assay [2] deals with T1, catalytic domain of human Bub1 (amino acids 704-1085) (Homo sapiens, UniProt O43683).
T1 construct: catalytic domain of human Bub1 (amino acids 704-1085); His6 (N); made in house; host or cells: insect cells (Hi5)
The assay is described as follows: Bub1 kinase assay (TR-FRET). Type of assay: biochemical. To be noted: 10 μM ATP, avg, read-out: Bub1 avg (IC50 [mol/l]). The source says:
Bub1-inhibitory activity of compounds of the present invention was quantified employing the Bub1 TR-FRET assay as described in the following paragraphs.
N-terminally His6-tagged recombinant catalytic domain of human Bub1 (amino acids 704-1085), expressed in insect cells (Hi5) and purified by Ni-NTA affinity chromatography and subsequent size exclusion chromatography, was used as enzyme. As substrate for the kinase reaction the biotinylated peptide biotin-Ahx-VLLPKKSFAEPG (C-terminus in amid form) was used which can be purchased e.g. form the company Biosyntan (Berlin, Germany).
For the assay 50 nl of a 100fold concentrated solution of the test compound in DMSO was pipetted into a black low volume 384well microtiter plate (Greiner Bio-One, Frickenhausen, Germany), 2 μl of a solution of Bub1 in aqueous assay buffer [50 mM Tris/HCl pH 7.5, 10 mM magnesium chloride (MgCl2), 200 mM potassium chloride (KCl), 1.0 mM dithiothreitol (DTT), 0.1 mM sodium ortho-vanadate, 1% (v/v) glycerol, 0.01% (w/v) bovine serum albumine (BSA), 0.005% (v/v) Trition X-100 (Sigma), 1× Complete EDTA-free protease inhibitor mixture (Roche)] were added and the mixture was incubated for 15 min at 22° C. to allow pre-binding of the test compounds to the enzyme before the start of the kinase reaction. Then the kinase reaction was started by the addition of 3 μl of a solution of adenosine-tri-phosphate (ATP, 16.7 μM=>final conc. in the 5 μl assay volume is 10 μM) and substrate (1.67 μM=>final conc. in the 5 μl assay volume is 1 μM) in assay buffer and the resulting mixture was incubated for a reaction time of 60 min at 22° C. The concentration of Bub1 was adjusted depending of the activity of the enzyme lot and was chosen appropriate to have the assay in the linear range, typical concentrations were in the range of 200 ng/ml. The reaction was stopped by the addition of 5 μl of a solution of TR-FRET detection reagents (0.2 μM streptavidine-XL665 [Cisbio Bioassays, Codolet, France] and 1 nM anti-phosho-Serine antibody [Merck Millipore, cat. #35-001] and 0.4 nM LANCE EU-W1024 labeled anti-mouse IgG antibody [Perkin-Elmer, product no. AD0077, as an alternative a Terbium-cryptate-labeled anti-mouse IgG antibody from Cisbio Bioassays can be used]) in an aqueous EDTA-solution (50 mM EDTA, 0.2% (w/v) bovine serum albumin in 100 mM HEPES pH 7.5).
The resulting mixture was incubated 1 h at 22° C. to allow the formation of complex between the phosphorylated biotinylated peptide and the detection reagents. Subsequently the amount of phosphorylated substrate was evaluated by measurement of the resonance energy transfer from the Eu-chelate to the streptavidine-XL. Therefore, the fluorescence emissions at 620 nm and 665 nm after excitation at 350 nm was measured in a TR-FRET reader, e.g. a Rubystar or Pherastar (both from BMG Labtechnologies, Offenburg, Germany) or a Viewlux (Perkin-Elmer). The ratio of the emissions at 665 nm and at […] was taken as the measure for the amount of phosphorylated substrate. The data were normalised (enzyme reaction without inhibitor=0% inhibition, all other assay components but no enzyme=100% inhibition).

T1 sequence (O43683 704-1085): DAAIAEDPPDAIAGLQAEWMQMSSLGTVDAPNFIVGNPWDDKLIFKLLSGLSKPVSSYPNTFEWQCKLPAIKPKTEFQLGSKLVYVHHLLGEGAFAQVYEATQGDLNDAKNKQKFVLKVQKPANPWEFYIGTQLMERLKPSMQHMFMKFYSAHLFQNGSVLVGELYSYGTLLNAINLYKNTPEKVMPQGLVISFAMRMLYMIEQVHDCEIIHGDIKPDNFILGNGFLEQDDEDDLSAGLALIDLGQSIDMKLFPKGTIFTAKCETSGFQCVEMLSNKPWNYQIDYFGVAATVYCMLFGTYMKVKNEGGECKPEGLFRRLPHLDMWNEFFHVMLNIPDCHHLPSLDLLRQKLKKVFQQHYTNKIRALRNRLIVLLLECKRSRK

With `Cc1nsc(Nc2cnc3ccccc3n2)c1C(=O)Nc1ccc(N2CCOCC2)nc1` [Example 169, 3-methyl-N-[6-(morpholin-4-yl)pyridin-3-yl]-5-(quinoxalin-2-ylamino)-1,2-thiazole-4-carboxamide], the pIC50 in assay [1] (Homo sapiens, HeLa) is 4.85; in assay [2] it was less than 4.70.
Turning to `Cc1nsc(Nc2cnc(C(F)(F)F)cn2)c1C(=O)Nc1ccc(OCC2CCN(CCC(F)(F)F)C2)nc1` (centres unmarked) [Example 124, 3-methyl-5-{[5-(trifluoromethyl)pyrazin-2-yl]amino}-N-(6-{[1-(3,3,3-trifluoropropyl)pyrrolidin-3-yl]methoxy}pyridin-3-yl)-1,2-thiazole-4-carboxamide], the pIC50 in assay [1] (Homo sapiens, HeLa) is 7.42; in assay [2], not above 4.70.
Regarding `Cc1nsc(Nc2cnc3ccccc3n2)c1C(=O)Nc1cccc(C(=O)N2CCNCC2)c1` [Example 101, 3-Methyl-N-[3-(piperazin-1-ylcarbonyl)phenyl]-5-(quinoxalin-2-ylamino)-1,2-thiazole-4-carboxamide], the pIC50 in assay [1] (Homo sapiens, HeLa) was 4.70; in assay [2], 5.12.
In the case of `Cc1nsc(Nc2cnc(C(F)(F)F)cn2)c1C(=O)Nc1ccc(C(=O)NCCN2CCCC(F)(F)C2)cc1` [Example 153, N-(4-{[2-(3,3-difluoropiperidin-1-yl)ethyl]carbamoyl}phenyl)-3-methyl-5-{[5-(trifluoromethyl)pyrazin-2-yl]amino}-1,2-thiazole-4-carboxamide], the pIC50 in assay [1] (Homo sapiens, HeLa) was 6.43; in assay [2] it was 4.85.
Regarding `Cc1nsc(Nc2cnc3ccccc3n2)c1C(=O)Nc1ccc(C(=O)NCCN2CCCC(F)(F)C2)cc1` [Example 156, N-(4-{[2-(3,3-difluoropiperidin-1-yl)ethyl]carbamoyl}phenyl)-3-methyl-5-(quinoxalin-2-ylamino)-1,2-thiazole-4-carboxamide], the pIC50 in assay [1] (Homo sapiens, HeLa) was 5.40; in assay [2], 4.72 and < 4.70.
As to `Cc1nsc(Nc2cncc(C(F)(F)F)n2)c1C(=O)Nc1ccc(C(=O)NCCN2CCCC(F)C2)cc1` (centres unmarked) [Example 155, N-(4-{[2-(3-fluoropiperidin-1-yl)ethyl]carbamoyl}phenyl)-3-methyl-5-{[6-(trifluoromethyl)pyrazin-2-yl]amino}-1,2-thiazole-4-carboxamide], the pIC50 in assay [1] (Homo sapiens, HeLa) is 4.70; in assay [2], less than 4.70.
Regarding `CCCN1CC[C@H](Oc2ccc(NC(=O)c3c(C)nsc3Nc3cnc(C(F)(F)F)cn3)cn2)[C@H](F)C1` [Example 147, N-(6-{[(3R,4S)-3-fluoro-1-propylpiperidin-4-yl]oxy}pyridin-3-yl)-3-methyl-5-{[5-(trifluoromethyl)pyrazin-2-yl]amino}-1,2-thiazole-4-carboxamide], the pIC50 was 7.52 in assay [1] (Homo sapiens, HeLa) and less than 4.70 in assay [2].
On the same counts, the results for `CCCCN1CC[C@@H](Oc2ccc(NC(=O)c3c(C)nsc3Nc3cnc(C(F)(F)F)cn3)cn2)[C@@H](F)C1` [Example 141, N-(6-{[(3S,4R)-1-butyl-3-fluoropiperidin-4-yl]oxy}pyridin-3-yl)-3-methyl-5-{[5-(trifluoromethyl)pyrazin-2-yl]amino}-1,2-thiazole-4-carboxamide] are 6.92 and not above 4.70.
As for `Cc1nsc(Nc2cnc3ccccc3n2)c1C(=O)Nc1cccc(C(=O)N[C@@H](CCC(N)=O)C(=O)O)c1` [Example 103, N^2-[3-({[3-Methyl-5-(quinoxalin-2-ylamino)-1,2-thiazol-4-yl]carbonyl}amino)-benzoyl]glutamine], the pIC50 is 4.70 in assay [1] (Homo sapiens, HeLa) and not above 4.70 in assay [2].
Take `Cc1nsc(Nc2cnc(C(F)(F)F)cn2)c1C(=O)Nc1ccc(OC2CCN(CC(F)(F)F)CC2)c(F)c1` [Example 163, N-(3-fluoro-4-{[1-(2,2,2-trifluoroethyl)piperidin-4-yl]oxy}phenyl)-3-methyl-5-{[5-(trifluoromethyl)pyrazin-2-yl]amino}-1,2-thiazole-4-carboxamide]: the pIC50 is 7.41 in assay [1] (Homo sapiens, HeLa) and less than 4.70 in assay [2].
Consider `Cc1nsc(Nc2cnc(C(F)(F)F)cn2)c1C(=O)Nc1ccc(O[C@@H]2CCN(CC(F)(F)F)C2)nc1` [Example 421, 3-Methyl-N-(6-{[(3R)-1-(2,2,2-trifluoroethyl)pyrrolidin-3-yl]oxy}pyridin-3-yl)-5-{[5-(trifluoromethyl)pyrazin-2-yl]amino}-1,2-thiazole-4-carboxamide], for which the results for the pIC50 in assay [1] and in assay [2] were 6.48 and not above 4.70, respectively.
`Cc1nsc(Nc2cnc3ccccc3n2)c1C(=O)Nc1cccc(C(=O)N[C@H](C(=O)O)[C@@H](C)O)c1` [Example 105, N-[3-({[3-methyl-5-(quinoxalin-2-ylamino)-1,2-thiazol-4-yl]carbonyl}amino)-benzoyl]threonine]: the pIC50 in assay [1] (Homo sapiens, HeLa) is 4.70; in assay [2], 4.72.
On the same counts, the results for `CCCCN1CC[C@H](Oc2ccc(NC(=O)c3c(C)nsc3Nc3cnc(C(F)(F)F)cn3)cn2)[C@H](F)C1` [Example 148, N-(6-{[(3R,4S)-1-butyl-3-fluoropiperidin-4-yl]oxy}pyridin-3-yl)-3-methyl-5-{[5-(trifluoromethyl)pyrazin-2-yl]amino}-1,2-thiazole-4-carboxamide] are 6.51 and less than 4.70.
On the same counts, the results for `CC(=O)N(C)CCOc1ccc(NC(=O)c2c(C)nsc2Nc2nc3c(C(F)(F)F)cccc3s2)cn1` [Example 112, N-(6-{2-[Acetyl(methyl)amino]-ethoxy}pyridin-3-yl)-3-methyl-5-{[4-(trifluoromethyl)-1,3-benzothiazol-2-yl]amino}-1,2-thiazole-4-carboxamide] are 6.10 and not above 4.70.
In the case of `Cc1nsc(Nc2cnc3ccccc3n2)c1C(=O)Nc1cccc(-c2nc(C(C)(C)C)no2)c1` [Example 108, N-[3-(3-tert-Butyl-1,2,4-oxadiazol-5-yl)phenyl]-3-methyl-5-(quinoxalin-2-ylamino)-1,2-thiazole-4-carboxamide], the pIC50 is 7.28 in assay [1] (Homo sapiens, HeLa) and not above 4.70 in assay [2].
Regarding `Cc1nsc(Nc2cnc3ccccc3n2)c1C(=O)Nc1cccc(C(=O)NCC(=O)O)c1` [Example 99, N-[3-({[3-Methyl-5-(quinoxalin-2-ylamino)-1,2-thiazol-4-yl]carbonyl}amino)benzoy]-glycine], the pIC50 in assay [1] (Homo sapiens, HeLa) was 4.70; in assay [2], 5.57.
As for `Cc1nsc(Nc2cnc(C(F)(F)F)cn2)c1C(=O)Nc1ccc(O[C@@H]2CCN(CCC(F)(F)F)C[C@@H]2F)nc1` [Example 139, N-(6-{[(3S,4R)-3-fluoro-1-(3,3,3-trifluoropropyl)piperidin-4-yl]oxy}pyridin-3-yl)-3-methyl-5-{[5-(trifluoromethyl)pyrazin-2-yl]amino}-1,2-thiazole-4-carboxamide], the pIC50 in assay [1] (Homo sapiens, HeLa) was 7.05; in assay [2], less than 4.70.
With `Cc1nsc(Nc2cnc(C(F)(F)F)cn2)c1C(=O)Nc1ccc(OC[C@@H]2CCCN(CCC(F)(F)F)C2)nc1` [Example 422, 3-Methyl-5-{[5-(trifluoromethyl)pyrazin-2-yl]amino}-N-(6-{[(3R)-1-(3,3,3-trifluoropropyl)piperidin-3-yl]methoxy}pyridin-3-yl)-1,2-thiazole-4-carboxamide], the pIC50 was 7.06 in assay [1] and not above 4.70 in assay [2].
For `Cc1nsc(Nc2cc(C#N)ccn2)c1C(=O)Nc1cccc(C(=O)N2CCCC2)c1` [Example 114, 5-[(4-Cyanopyridin-2-yl)amino]-3-methyl-N-[3-(pyrrolidin-1-ylcarbonyl)phenyl]-1,2-thiazole-4-carboxamide], the pIC50 in assay [1] (Homo sapiens, HeLa) was 5.89; in assay [2], not above 4.70.
